The values that follow come from US6723753B2, “Substituted n-benzyl-n-phenyl aminoalcohol compounds useful for inhibiting cholesteryl ester transfer protein activity” (Pharmacia Corporation, priority 2002, dated 2004).

pIC50: −log10 of the molar value. Bounds are passed on as bounds.

In one test the target is T1, CETP (Homo sapiens, UniProt P11597).
T1 sequence (P11597 18-493): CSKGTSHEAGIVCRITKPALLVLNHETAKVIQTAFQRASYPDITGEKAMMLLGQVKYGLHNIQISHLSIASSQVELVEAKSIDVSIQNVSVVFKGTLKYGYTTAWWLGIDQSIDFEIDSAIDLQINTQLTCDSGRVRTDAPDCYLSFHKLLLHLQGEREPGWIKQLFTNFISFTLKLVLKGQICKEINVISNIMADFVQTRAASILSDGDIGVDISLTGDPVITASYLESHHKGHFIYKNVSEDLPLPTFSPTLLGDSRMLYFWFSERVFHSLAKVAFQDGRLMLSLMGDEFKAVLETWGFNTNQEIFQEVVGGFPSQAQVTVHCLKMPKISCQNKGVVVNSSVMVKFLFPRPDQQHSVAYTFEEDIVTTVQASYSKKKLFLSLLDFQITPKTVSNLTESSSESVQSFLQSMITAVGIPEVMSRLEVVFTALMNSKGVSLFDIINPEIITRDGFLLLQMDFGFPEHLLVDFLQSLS
As to the kind of experiment: Assay of CETP Inhibition using Purified Components (Reconstituted Buffer Assay). The format is biochemical. Further details: made in house; host or cells: CHO cells (serum-free conditioned medium). As to conditions: IC50, Inhibition of CETP activity in reconstituted buffer assay; transfer of [3H]CE from HDL to LDL. The method, boiled down:
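Purified human recombinant CETP from transfected CHO cells was incubated with [^3H]CE-labeled HDL donor and LDL acceptor in Tris pH 7.4/NaCl/EDTA/1% BSA buffer for 2 h at 37 °C. LDL was then precipitated with dextran sulfate/MgCl2, filtered, and counted by liquid scintillation to give IC50 for CE transfer.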
Take `Cc1cccnc1-c1cccc(CN(CC(O)C(F)(F)F)c2cccc(Oc3ccccc3)c2)c1` (stereo not shown) [Example 589]: the negative logarithm of the IC50 (pIC50) was 4.82.

For the molecule `OC(CN(Cc1cccc(-c2ccncc2)c1)c1cccc(Oc2ccccc2)c1)C(F)(F)F` (stereo not shown) [Example 591], the pIC50 was 5.21.

For the molecule `CC(C)Cc1cccc(CN(CC(O)C(F)(F)F)c2cccc(Oc3ccccc3)c2)c1` (stereo not shown) [Example 598], the negative logarithm of the IC50 (pIC50) is 6.27.

As for `OC(CN(Cc1ccc2c(c1)OC(F)(F)C(F)(F)O2)c1cccc(Oc2ccccc2)c1)C(F)(F)F` (stereo not shown) [Example 687], the pIC50 is 4.92.

The test is the same for the next values; noted with them: Inhibition of CETP activity in reconstituted buffer assay; transfer of [3H]CE from HDL to LDL; read-out: IC50.
Take `OC(CN(Cc1cccc(-c2cccnc2)c1)c1cccc(Oc2ccccc2)c1)C(F)(F)F` (stereo not shown) [Example 590]: the pIC50 was 4.85. On the same count and under the same terms, the value for `OC(CN(Cc1cccc(Cc2ccccc2)c1)c1cccc(Oc2ccccc2)c1)C(F)(F)F` (stereo not shown) [Example 596, 3-[(3-phenoxyphenyl)[[3-(phenylmethyl)phenyl]methyl]amino]-1,1,1-trifluoro-2-propanol] was 4.89; that for `CC(C)CCc1cccc(CN(CC(O)C(F)(F)F)c2cccc(Oc3ccccc3)c2)c1` (stereo not shown) [Example 597] was 5.70; that for `OC(CN(Cc1cccc(Oc2ncccn2)c1)c1cccc(Oc2ccccc2)c1)C(F)(F)F` (stereo not shown) [Example 605, 3-[(3-phenoxyphenyl) [[3-(2-pyrimidinyloxy)phenyl]methyl]amino]-1,1,1-trifluoro-2-propanol] was 4.92. For the molecule `OC(CN(Cc1cccc(-c2ccccc2)c1)c1cccc(Oc2ccccc2)c1)C(F)(F)F` (stereo not shown) [Example 606], the negative-log IC50 (pIC50) was 5.38. Take `OC(CN(Cc1cccc(C2CCCC2)c1)c1cccc(Oc2ccccc2)c1)C(F)(F)F` (stereo not shown) [Example 607, 3-[(3-phenoxyphenyl)[[3-cyclopentylphenyl]methyl]amino]-1,1,1-trifluoro-2-propanol]: the pIC50 was 6.51. In the case of `OC(CN(Cc1cccc(C2CCCO2)c1)c1cccc(Oc2ccccc2)c1)C(F)(F)F` (stereo not shown) [Example 608, 3-[(3-phenoxyphenyl)[[3-(tetrahydro-2-furanyl)phenyl]methyl]amino]-1,1,1-trifluoro-2-propanol], the pIC50 was 5.64. On the same count and under the same terms, the value for `FC(F)C(F)(F)Oc1cccc(C2OC(C(F)(F)F)CN2c2cccc(Oc3ccccc3)c2)c1` (stereo not shown) [Example 610, 3-(3-phenoxyphenyl)-2-[3-(1,1,2,2-tetrafluoroethoxy)phenyl]-5-(trifluoromethyl)oxazolidine] was 4.70. The same measure, in the same setting: the value for `OC(CCN(Cc1cccc(OC(F)(F)F)c1)Cc1cccc(OC(F)(F)F)c1)C(F)(F)F` (stereo not shown) [Example 611, 4-[bis-[[3-(trifluoromethoxy)phenyl]methyl]amino]-1,1,1-trifluoro-2-butanol] was 4.92; that for `CN(C)C(=O)c1cccc(CN(CC(O)C(F)(F)F)c2cccc(Oc3ccccc3)c2)c1` (stereo not shown) [Example 612, N,N-dimethyl-3-[[(3-phenoxyphenyl)(3,3,3-trifluoro-2-hydroxypropyl)amino]methyl]benzamide] was 4.46; that for `CC(C)(O)c1cccc(CN(CC(O)C(F)(F)F)c2cccc(Oc3ccccc3)c2)c1` (stereo not drawn) [Example 617, α, α-dimethyl-3-[[(3-phenoxyphenyl)(3,3,3-trifluoro-2-hydroxypropyl)amino]methyl]benzenemethanol] was 5.10. For `CCC(=O)c1cccc(CN(CC(O)C(F)(F)F)c2cccc(Oc3ccccc3)c2)c1` (stereo not shown) [Example 620, 1-[3-[[(3-phenoxyphenyl)(3,3,3-trifluoro-2-hydroxypropyl)-amino]methyl]phenyl]-1-propanone], the negative logarithm of the IC50 (pIC50) was 5.30. With `OC(CN(Cc1cccc(C(F)(F)F)c1)c1ccc(C#Cc2ccccc2)c(C(F)(F)F)c1)C(F)(F)F` (stereo not shown) [Example 622], the pIC50 was 5.46. With `OC(CN(Cc1cccc(C(F)(F)F)c1)c1ccc(Br)c(C(F)(F)F)c1)C(F)(F)F` (stereo not shown) [Example 625, 3-[4-bromo-3-(trifluoromethyl)phenyl[[3-(trifluoromethyl)-phenyl]methyl]amino]-1,1,1-trifluoro-2-propanol], the pIC50 is 5.08.

As for `CC(CCc1cccc(OC(F)(F)F)c1)N(CC(O)C(F)(F)F)c1cccc(Oc2ccccc2)c1` (stereo not shown) [Example 626, 3-[[1-methyl-3-[3-(trifluoromethoxy)phenyl]propyl](3-phenoxyphenyl)amino]-1,1,1-trifluoro-2-propanol], the pIC50 was 4.52. Regarding `COCc1cccc(CN(CC(O)C(F)(F)F)c2cccc(Oc3ccccc3)c2)c1` (stereo not shown) [Example 627, 3-[[(3-phenoxyphenyl)(3,3,3-trifluoro-2-hydroxypropyl)amino]methyl]methoxymethylbenzene], the pIC50 is 5.39.

With `CCN(CC)c1ccc(CN(CC(O)C(F)(F)F)c2cccc(Oc3ccccc3)c2)cc1` (stereo not shown) [Example 631, 3-[(3-phenoxyphenyl)[[4-(N,N-diethylamino)phenyl]methyl]amino]-1,1,1-trifluoro-2-propanol], the negative logarithm of the IC50 (pIC50) is less than 4.00.

As for `OC(CN(Cc1cccc(OC(F)(F)F)c1)c1nc(Cl)nc(Oc2ccc(F)cc2)n1)C(F)(F)F` (stereo not shown) [Example 632, N-[2-chloro-6-(p-fluorophenoxy)-1,3,5-triazin-4-yl]-3-[[[3-(trifluoromethoxy)phenyl]methyl]amino]-1,1,1-trifluoro-2-propanol], the pIC50 was 5.17.

With `Cc1ccc(Oc2cccc(N(Cc3cccc(OC(F)(F)F)c3)CC(O)C(F)(F)F)c2)cn1` (stereo not shown) [Example 633, 3-[[3-(2-methyl-5-pyridyloxy)phenyl][[3-(trifluoromethoxy)phenyl]methyl]-amino]-1,1,1-trifluoro-2-propanol], the pIC50 is 5.51. As for `OC(CN(Cc1cccc(OC(F)(F)F)c1)c1cccc(Cc2cccc(N(Cc3cccc(OC(F)(F)F)c3)CC(O)C(F)(F)F)c2)c1)C(F)(F)F` (stereo not shown) [Example 665, 1,1′-[methylenebis[3,1-phenylene[[[3-(trifluoromethoxy)phenyl]methyl]imino]]]bis[3,3,3-trifluoro-2-propanol]], the pIC50 was 4.10. For `COc1ccccc1N(Cc1ccc(C)cc1)CC(O)C(F)(F)F` (stereo not shown) [Example 667], the pIC50 is less than 4.00.

Turning to `COc1ccccc1N(Cc1cccc(C)c1)CC(O)C(F)(F)F` (stereo not shown) [Example 668], the pIC50 was less than 4.00. In the case of `COc1ccccc1N(Cc1cccc(C(F)(F)F)c1)CC(O)C(F)(F)F` (stereo not shown) [Example 669], the negative logarithm of the IC50 (pIC50) was less than 4.00. The same measure, in the same setting: the value for `Cc1ccc(CN(CC(O)C(F)(F)F)c2ccccc2C(F)(F)F)cc1` (stereo not shown) [Example 673] was less than 4.00; that for `COc1ccc(Oc2cccc(CN(CC(O)C(F)(F)F)c3cccc(F)c3)c2)cc1` (stereo not shown) [Example 675] was less than 4.00. Turning to `OC(CN(Cc1cccc(Oc2ccc(Cl)cc2)c1)c1cccc(F)c1)C(F)(F)F` (stereo not shown) [Example 676], the negative logarithm of the IC50 (pIC50) is less than 4.00.

With `OC(CN(Cc1cc(C(F)(F)F)cc(C(F)(F)F)c1)c1cccc(F)c1)C(F)(F)F` (stereo not shown) [Example 677], the pIC50 is less than 4.00. On to `Cc1cccc(CN(CC(O)C(F)(F)F)c2cccc(F)c2F)c1` (stereo not shown) [Example 678], for which the pIC50 was less than 4.00. Still for that read-out and setting: the value for `Cc1ccc(CN(CC(O)C(F)(F)F)c2cccc(C(F)(F)F)c2F)cc1` (stereo not shown) [Example 679] was less than 4.00; that for `Cc1cccc(CN(CC(O)C(F)(F)F)c2cccc(C(F)(F)F)c2F)c1` (stereo not shown) [Example 680] was less than 4.00; that for `Cc1ccc(CN(CC(O)C(F)(F)F)c2cccc(F)c2F)cc1` (stereo not shown) [Example 681] was less than 4.00. On to `COc1ccccc1N(Cc1ccc(C(F)(F)F)cc1)CC(O)C(F)(F)F` (stereo not shown) [Example 682], for which the pIC50 was less than 4.00.

`OC(CN(Cc1ccc(OCc2ccccc2)cc1)c1cccc(OC(F)(F)F)c1)C(F)(F)F` (stereo not shown) [Example 683]: the pIC50 is 4.70. As to `O=[N+]([O-])c1cc(Cl)ccc1CN(CC(O)C(F)(F)F)c1cccc(Oc2ccccc2)c1` (stereo not shown) [Example 684], the pIC50 was less than 4.00. On the same count and under the same terms, the value for `OC(CN(Cc1ccc(Oc2ccc(Cl)c(Cl)c2)cc1)c1cccc(Oc2ccccc2)c1)C(F)(F)F` (stereo not shown) [Example 685] was 4.22; that for `OC(CN(Cc1cccc(C(F)(F)F)c1)c1ccc(-c2ccccc2)cc1)C(F)(F)F` (stereo not shown) [Example 689] was 5.30. Regarding `Oc1cccc(N(Cc2cccc(OC(F)(F)F)c2)CC(O)C(F)(F)F)c1` (stereo not shown) [Example 692], the pIC50 is 4.80.

Regarding `CCC(=O)c1ccc(Oc2cccc(N(Cc3cccc(OC(F)(F)C(F)F)c3)CC(O)C(F)(F)F)c2)cc1` (stereo not shown) [Example 693], the negative-log IC50 (pIC50) was 5.92.

Turning to `FC(CN(Cc1cccc(OC(F)(F)C(F)F)c1)c1cccc(Oc2ccccc2)c1)C(F)(F)F` (stereo not shown) [Example 1669, N-(3-phenoxyphenyl)-N-(3,3,3,2-tetrafluoropropyl)-3-(1,1,2,2-tetrafluoroethoxy)benzenemethanamine], the negative-log IC50 (pIC50) is 4.77. For the molecule `CCc1cc(Oc2cccc(N(Cc3cccc(OC(F)(F)C(F)F)c3)C(CO)C(F)(F)F)c2)ccc1Cl` (stereo not shown) [Example 1670], the pIC50 is 5.74.

As for `FC(F)(F)CCCN(Cc1cccc(OC(F)(F)F)c1)c1cccc(Oc2ccccc2)c1` [Example 1671, N-(3-phenoxyphenyl)-N-(4,4,4-trifluorobutyl)-3-(trifluoromethoxy) benzenemethanamine], the pIC50 was 4.96. As for `OC(CN(Cc1ccc(C(F)(F)F)cc1)Cc1cccc(F)c1)C(F)(F)F` (stereo not shown) [compound 169], the negative-log IC50 (pIC50) is less than 4.00.
